Patent publication USRE47689E1, “Compounds for treating spinal muscular atrophy” (PTC Therapeutics, Inc., priority 2011, dated 2019)
Where two headings read alike, the source gives them in different places.

How the values were obtained:
[1] = test system: Smn protein; assay: Smn protein assay in cultured cells (SMN HTRF); assay type: cell-based, human; settings: 48 hours; for maximum fold (Fold) increase of Smn protein: SMA patient fibroblast cells, 7-point concentration data, fold increase relative to vehicle control (SMN HTRF); for EC1.5x (concentration giving 1.5-fold Smn protein increase): SMA Type 1 patient fibroblast cells (GM03813), 7-point concentration curve, SMN HTRF, concentration producing 1.5 times Smn protein vs DMSO vehicle control, read-out: EC1.5x for Smn protein expression
In short: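 Smn in SMA fibroblast lysates, measured by anti-SMN HTRF after 48 h compound exposure; EC1.5x from fold change over vehicle.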

[2] = test system: SMN2 minigene (full length SMN2 minigene mRNA containing SMN2 exon 7); assay: SMN2 minigene mRNA splicing RT-qPCR assay in cultured cells; assay type: cell-based, human; settings: Homo sapiens, HEK293-H, read-out: EC1.5x for production of full length SMN2 mRNA
In short: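 Lysates → one-step RT-qPCR, minigene-specific primers (0.4 μM final) + GAPDH multiplex, 40 cycles. FL/GAPDH vs DMSO; EC1.5x, star-binned.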

[3] = HEK293H cells stably transfected with SMN2-A minigene, 24 hours, 7-point concentration curve, 1.5-fold relative to vehicle-treated cells

SMILES | melting point [°C] | maximum fold (Fold) increase of Smn protein [1] | EC (1.5-fold) [2, 3] [µM] | EC1.5x (concentration giving 1.5-fold Smn protein increase) [1] [nM] | EC (1.5-fold) ([2]; 24 h) [µM]
CN(C)[C@H]1[C@@H]2CN(c3ccc4cc(-c5cn6ccsc6n5)c(=O)oc4c3)C[C@@H]21 [Compound 437, 7-[(1R,5S,6s)-6-(dimethylamino)-3-azabicyclo[3.1.0]hex-3-yl]-3-(imidazo[2,1-b][1,3]thiazol-6-yl)-2H-chromen-2-one] | 233 to 235 | ** (fold increase between >1.2 and ≤1.35) | 1 to 3 |  | 
Cc1cn2cc(-c3cc4ccc(C5CCN(CCCF)CC5)cc4oc3=O)nc2c(C)n1 [Compound 906, 3-(6,8-dimethylimidazo[1,2-a]pyrazin-2-yl)-7-[1-(3-fluoropropyl)piperidin-4-yl]-2H-chromen-2-one] | 195 to 200 | ***** (fold increase >1.65) | < 0.1 | < 300 | 
CCN1CCCN(c2ccc3cc(-c4cc5cnc(C)cn5c4)c(=O)oc3c2)CC1 [Compound 667, 7-(4-ethyl-1,4-diazepan-1-yl)-3-(3-methylpyrrolo[1,2-a]pyrazin-7-yl)-2H-chromen-2-one] | 130 to 133 | **** (fold increase between >1.5 and ≤1.65) | < 0.1 | < 300 | 
Cc1cn2cc(-c3cc4ccc(N5C[C@H]6CN(CCO)C[C@H]6C5)cc4oc3=O)nc2c(C)n1 [Compound 741, 3-(6,8-dimethylimidazo[1,2-a]pyrazin-2-yl)-7-[(3aR,6aS)-5-(2-hydroxyethyl)hexahydropyrrolo[3,4-c]pyrrol-2(1H)-yl]-2H-chromen-2-one] | 258 to 268 | ***** (fold increase >1.65) | < 0.1 | < 300 | 
Cc1ccn2cc(-c3cc4ccc(NC5CCNCC5)cc4oc3=O)nc2c1 [Compound 495, 3-(7-methylimidazo[1,2-a]pyridin-2-yl)-7-(piperidin-4-ylamino)-2H-chromen-2-one] | 232 to 239 | * (maximum fold increase of ≤1.2) | 1 to 3 |  | 
Cc1nccn2cc(-c3cc4ccc(N5C[C@@H](C)N[C@@H](C)C5)cc4oc3=O)cc12 [Compound 554, 7-[(3R,5S)-3,5-dimethylpiperazin-1-yl]-3-(1-methylpyrrolo[1,2-a]pyrazin-7-yl)-2H-chromen-2-one] | 200 to 203 | ***** (fold increase >1.65) | < 0.1 | < 300 | 
Cc1cn2cc(-c3cc4ccc(N5CCC6(CCNC6)C5)cc4oc3=O)nc2c(C)n1 (centres unmarked) [Compound 945, 7-(2,7-diazaspiro[4.4]non-2-yl)-3-(6,8-dimethylimidazo[1,2-a]pyrazin-2-yl)-2H-chromen-2-one] | 190 to 200 | ***** (fold increase >1.65) | < 0.1 | < 300 | 
CCc1cn2cc(-c3cc4ccc(N5CCCN(C)CC5)cc4oc3=O)nc2s1 [Compound 431, 3-(2-ethylimidazo[2,1-b][1,3]thiazol-6-yl)-7-(4-methyl-1,4-diazepan-1-yl)-2H-chromen-2-one] | 188 to 191 | * (maximum fold increase of ≤1.2) | 1 to 3 |  | 
CCN1CCN(c2ccc3cc(-c4cc5cc(C)nc(C)c5o4)c(=O)oc3c2)CC1 [Compound 788, 3-(5,7-dimethylfuro[2,3-c]pyridin-2-yl)-7-(4-ethylpiperazin-1-yl)-2H-chromen-2-one] | 196 to 198 | **** (fold increase between >1.5 and ≤1.65) | < 0.1 | < 300 | 
Cc1cn2cc(-c3cc4ccc(C5CCN(C)CC5)cc4oc3=O)nc2cn1 [Compound 841, 3-(6-methylimidazo[1,2-a]pyrazin-2-yl)-7-(1-methylpiperidin-4-yl)-2H-chromen-2-one] | 266 to 272 | ***** (fold increase >1.65) | < 0.1 | < 300 | 
CN1CCN(c2ccc3cc(-c4ccsc4)c(=O)oc3c2)CC1 [Compound 320, 7-(4-methylpiperazin-1-yl)-3-(thiophen-3-yl)-2H-chromen-2-one] | 151 to 153 | * (maximum fold increase of ≤1.2) |  |  | 1 to 3

Now from value to molecule, other results behind:

melting point [°C] | SMILES | maximum fold (Fold) increase of Smn protein [1] | EC (1.5-fold) [2, 3] [µM] | EC1.5x (concentration giving 1.5-fold Smn protein increase) [1] [nM] | EC (1.5-fold) ([2]; 24 h) [µM]
178 to 183 | Cc1csc(-c2cc3ccc(N4C[C@@H](C)N[C@@H](C)C4)cc3oc2=O)n1 [Compound 286, 7-[(3R,5S)-3,5-dimethylpiperazin-1-yl]-3-(4-methyl-1,3-thiazol-2-yl)-2H-chromen-2-one] | * (maximum fold increase of ≤1.2) | 1 to 3 |  | 
186 to 189 | Cc1cn2cc(-c3cc4ccc(N5CCNCC5)cc4oc3=O)cc2c(C)n1 [Compound 670, 3-(1,3-dimethylpyrrolo[1,2-a]pyrazin-7-yl)-7-(piperazin-1-yl)-2H-chromen-2-one] | ***** (fold increase >1.65) | < 0.1 | < 300 | 
153 to 155 | COc1cc(-c2cc3ccc(N4CCNCC4)cc3oc2=O)ccc1F [Compound 576, 3-(4-fluoro-3-methoxyphenyl)-7-(piperazin-1-yl)-2H-chromen-2-one] | * (maximum fold increase of ≤1.2) | 1 to 3 |  | 
188 to 192 | C[C@H]1CN(c2ccc3cc(-c4cn5cccc(F)c5n4)c(=O)oc3c2)CCN1C [Compound 585, 7-[(3S)-3,4-dimethylpiperazin-1-yl]-3-(8-fluoroimidazo[1,2-a]pyridin-2-yl)-2H-chromen-2-one] | *** (fold increase between >1.35 and ≤1.5) | 0.3 to 1 |  | 
141 to 143 | COc1ccc(-c2cc3ccc(N4CCN[C@@H](C)C4)cc3oc2=O)cc1F [Compound 545, 3-(3-fluoro-4-methoxyphenyl)-7-[(3S)-3-methylpiperazin-1-yl]-2H-chromen-2-one] | *** (fold increase between >1.35 and ≤1.5) | 0.1 to 0.3 |  | 
228 to 230 | Cc1nc2ccc(-c3cc4ccc(N5CCCNCC5)cc4oc3=O)cc2s1 [Compound 771, 7-(1,4-diazepan-1-yl)-3-(2-methyl-1,3-benzothiazol-6-yl)-2H-chromen-2-one] | * (maximum fold increase of ≤1.2) | 1 to 3 |  | 
196 to 198 | C[C@H]1CN(c2ccc3cc(-c4ccc5c(c4)OCCO5)c(=O)oc3c2)CCN1 [Compound 513, 3-(2,3-dihydro-1,4-benzodioxin-6-yl)-7-[(3S)-3-methylpiperazin-1-yl]-2H-chromen-2-one] | * (maximum fold increase of ≤1.2) | 1 to 3 |  | 
211 to 220 | O=c1oc2cc(N3C[C@@H]4C[C@H]3CN4)ccc2cc1-c1nc(C(F)(F)F)cs1 [Compound 266, 7-[(1S,4S)-2,5-diazabicyclo[2.2.1]hept-2-yl]-3-[4-(trifluoromethyl)-1,3-thiazol-2-yl]-2H-chromen-2-one] | * (maximum fold increase of ≤1.2) | 1 to 3 |  | 
185 to 188 | Cc1ccc2nc(-c3cc4ccc(N5CCN[C@H](C)C5)cc4oc3=O)cn2c1 [Compound 220, 3-(6-methylimidazo[1,2-a]pyridin-2-yl)-7-[(3R)-3-methylpiperazin-1-yl]-2H-chromen-2-one] | ** (fold increase between >1.2 and ≤1.35) | 0.1 to 0.3 |  | 
196 to 199 | CN1CCCN(c2ccc3cc(-c4cn5cccc(C(F)(F)F)c5n4)c(=O)oc3c2)CC1 [Compound 293, 7-(4-methyl-1,4-diazepan-1-yl)-3-[8-(trifluoromethyl)imidazo[1,2-a]pyridin-2-yl]-2H-chromen-2-one] | * (maximum fold increase of ≤1.2) | 0.3 to 1 |  | 
251 to 253 | CCc1cn2cc(-c3cc4ccc(N5C[C@@H](C)N[C@@H](C)C5)cc4oc3=O)nc2s1 [Cpd 429, 7-[(3R,5S)-3,5-dimethylpiperazin-1-yl]-3-(2-ethylimidazo[2,1-b][1,3]thiazol-6-yl)-2H-chromen-2-one] | * (maximum fold increase of ≤1.2) | 0.3 to 1 |  | 
234 to 238 | C[C@@H]1CN(c2ccc3cc(-c4nc(C(F)(F)F)cs4)c(=O)oc3c2)CCN1 [Compound 240, 7-[(3R)-3-methylpiperazin-1-yl]-3-[4-(trifluoromethyl)-1,3-thiazol-2-yl]-2H-chromen-2-one] | * (maximum fold increase of ≤1.2) | 1 to 3 |  | 
234 to 238 | C[C@H]1CN(c2ccc3cc(-c4nc(C(F)(F)F)cs4)c(=O)oc3c2)CCN1 [Compound 239, 7-[(3S)-3-methylpiperazin-1-yl]-3-[4-(trifluoromethyl)-1,3-thiazol-2-yl]-2H-chromen-2-one] | * (maximum fold increase of ≤1.2) | 1 to 3 |  | 
